Test results taken from patent US8883739B2, “Osteocalcin as a treatment for male reproductive disorders” (The Trustees of Columbia University in the City of New York, priority 2010, dated 2014).
Where no end group is shown, it is not given here.

Columns and labels:
GPCR6A = target: T1, GPCR6A (Mus musculus, UniProt Q8K4Z6); details: Christiansen et al., 2007; cited from earlier work
T1 sequence (Q8K4Z6 21-928): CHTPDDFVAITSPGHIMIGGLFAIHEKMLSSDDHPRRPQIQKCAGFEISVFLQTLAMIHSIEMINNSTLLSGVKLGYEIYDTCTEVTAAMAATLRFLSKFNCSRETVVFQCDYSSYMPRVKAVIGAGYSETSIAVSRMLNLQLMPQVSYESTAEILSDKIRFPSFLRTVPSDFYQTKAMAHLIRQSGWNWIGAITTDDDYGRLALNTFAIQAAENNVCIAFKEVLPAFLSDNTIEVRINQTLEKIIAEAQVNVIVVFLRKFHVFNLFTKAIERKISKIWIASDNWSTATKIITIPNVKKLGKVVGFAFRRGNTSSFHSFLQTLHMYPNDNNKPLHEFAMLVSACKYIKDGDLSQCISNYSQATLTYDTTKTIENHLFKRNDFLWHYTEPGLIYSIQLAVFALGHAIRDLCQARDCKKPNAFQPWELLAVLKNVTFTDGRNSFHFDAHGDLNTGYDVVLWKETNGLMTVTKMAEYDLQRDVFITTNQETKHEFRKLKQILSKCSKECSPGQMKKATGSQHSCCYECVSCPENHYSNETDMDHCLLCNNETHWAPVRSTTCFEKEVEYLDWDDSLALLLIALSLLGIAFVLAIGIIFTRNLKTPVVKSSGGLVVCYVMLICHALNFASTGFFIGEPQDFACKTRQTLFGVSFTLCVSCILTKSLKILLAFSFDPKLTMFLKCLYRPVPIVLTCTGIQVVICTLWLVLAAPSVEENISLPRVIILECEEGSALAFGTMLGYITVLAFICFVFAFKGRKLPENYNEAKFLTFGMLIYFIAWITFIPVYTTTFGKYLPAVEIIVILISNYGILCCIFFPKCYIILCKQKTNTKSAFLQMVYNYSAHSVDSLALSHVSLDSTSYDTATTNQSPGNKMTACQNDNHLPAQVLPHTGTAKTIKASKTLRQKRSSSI

GPRC6a = target: T2, GPRC6a (Mus musculus, UniProt Q8K4Z6); assay: Receptor binding assay with biotinylated osteocalcin on testis sections
T2 construct: testes from 8-week old mice were snap frozen in liquid nitrogen and 20 μm thick sections were prepared; from tissue; host or cells: mouse testis sections (Leydig cells), 8-week old mice
T2 sequence (Q8K4Z6 21-928): T1 sequence (Q8K4Z6 21-928)
Method: For binding studies, testes from 8-week old mice were snap frozen in liquid nitrogen and 20 μm thick sections were prepared and dessicated overnight at +4° C. under vacuum. On the following day, sections were rehydrated in ice-cold binding buffer (50 mM TrisHCl, pH 7.4, 10 mM MgCl2, 0.1 mM EDTA and 0.1% BSA) for 15 minutes and incubated for 1 hour in the presence of biotinylated osteocalcin. […] After 3 washes in cold PBS, sections were incubated for 1 hour in the detection system containing 0.1% BSA (ABC Elite, Vector Laboratories), washed again, and incubated with DAB peroxidase substrate kit (Vector Laboratories) according to the manufacturer's protocol. After a final wash, sections were mounted in water-based mounting medium. As negative controls, sections incubated with the detection system only (ABC Elite and DAB) or OstR−/− testis sections (Basura et al., 2008, Hear. Res. 244:45-50) were used.

WT mice [1] = assay: Daily osteocalcin injections in WT mice for 12 weeks; format: in vivo, mouse
Method: WT mice (n=6) were injected daily with either 3 ng/g or 30 ng/g of uncarboxylated osteocalcin for 12 weeks. […] Likewise, serum testosterone levels were increased in osteocalcin-injected mice compared to vehicle-injected mice (FIG. 7D).
(§1) Caudal epididymides were minced in 1 ml PBS and the number of cells released counted after 1 hour. The total sperm count was assessed in the final suspension by using a hemacytometer (Dakhova et al., 2009, Endocrinology 150:404-412). Circulating levels of testosterone, estradiol (E2), and progesterone were measured by radioimmunoassay (RIA) from Diagnostic Systems Laboratories (Testosterone RIA DSL-4000, Estradiol RIA DSL-43100, and Progesterone RIA-3900).
One testis or ovary from each mouse was randomly selected for molecular analysis and the other one was used for histology. Specimens were collected, weighed, and fixed in Bouin's fixative for histological analyses before being dehydrated through graded ethanol, processed for paraffin embedding, and serially sectioned at 5 μm. For histological analysis, sections of testes and ovaries were stained with periodic acid-Schiff and counterstained with hematoxylin. TUNEL labeling was performed using the ApopTag Peroxydase In Situ Apoptosis detection kit (Millipore-57100). Apoptotic indices were determined by counting the total number of TUNEL-positive cells or the number of TUNEL positive spermatocytes for all stage tubules. Approximately 500 tubules were counted on at least 4 cross-sections located at midtestis for each animal.

TM3 Leydig cells [2] = assay: Anti-phospho-tyrosine Western blot of Leydig cells; format: cell-based, mouse; details: 1 minute
Method: (§2) Western blotting was performed according to standard procedures. Frozen testes were homogenized and lysed with 1×RIPA buffer. Membranes were blocked and then incubated overnight with primary antibody in TBST-5% BSA, followed by incubation with appropriate HRP-conjugated secondary antibody. Signals were visualized with ECL. The following primary antibodies were used: anti-phospho-tyrosin (9416), anti-pERK1/2 (4370), anti-ERK1/2 (9102), anti-pCREB (9198), anti-CREB (4820), anti-Cleaved Caspase-3 (Asp175) (9661) (all from Cell Signaling), and anti-tACE (H-300): sc-13973 and anti-CHD5 (H-185): sc-68390 from Santa Cruz; the anti-osteocalcin was described in Ferron et al., 2010, Biochem. Biophys. Res. Comm. 397:691-696.

primary Leydig cells [3] = assay: Measurement of intracellular calcium in primary Leydig cells; format: cell-based, mouse
Method: Isolated primary Leydig cells were resuspended in buffer containing 95 mM NaCl, 4.8 mM KCl, 1.2 mM MgSO4, 1.2 mM KH2PO4, 5.6 mM glucose, 25 mM NaHCO3, 1.7 mM CaCl2, 0.25 mM sodium purivate, 1× PenStrep, 20 mM HEPES, 0.3% BSA, pH 7.4 at 37° C. (reagents from Sigma Aldrich, except for sodium pyruvate, PenStrep and HEPES from Invitrogen), plated at the density of 17-25000 cells/well on 96-well plate and placed in an incubator at 33° C., 5% CO2 for 2 hours. Afterward, the FLIPR dye (Calcium Plus Assay Kit Dye, Molecular Devices) diluted in the same buffer supplemented with 2.5 mM probenecid, pH 7.4 was exchanged for the previous medium and incubated with the cells for an additional 30-45 minutes. Following the incubation with the dye, cells were placed in a BD Pathway 855 High-Content Bioimager, recorded for 10-20 seconds to get baseline fluorescence, and then stimulated with doses of osteocalcin ranging from 0.3 to 500 ng/ml as well as control substances: medium, calcium ionophore A23187, 10% FBS, 400 μM Arginine^2+, 100 μM ATP/UTP mix and recorded for an additional 2-5 minutes. The probing time was varied between 1 and 5 seconds. Obtained images were analyzed for the change in fluorescence using ImageJ 1.41.

TM3 Leydig cells [4] = assay: cAMP quantification in Leydig cells; format: cell-based, mouse; details: 30 minutes, 0.5 mM IBMX
Method: For cAMP measurements, TM3 Leydig cells were plated in 6 cm dishes (10^7 cells per dish) a day before experiment. Cells were serum starved for 16 hours (in the presence of 0.1% BSA) then pre-incubated in the presence of 0.5 mM IBMX for 30 minutes and stimulated with the indicated concentration of osteocalcin (also in the presence of 0.5 mM IBMX) for 30 minutes. cAMP concentration was measured with the Parameter cAMP kit (R&D Systems, KGE002).

Leydig cell cultures = assay: Expression of testosterone biosynthesis enzymes in Leydig cell cultures treated with uncarboxylated osteocalcin; format: cell-based, mouse; details: qPCR
Method: (§3) Adult mouse Leydig cells were isolated by mechanical dissociation of the testes followed by purification on a 0-90% Percoll gradient (Hunter et al., 1982, Mol. Cell. Endocrinol. 25:35-47; Schumacher et al., 1978, FEBS Lett. 91:333-338). Primary Leydig cells were cultured in Minimal Essential Medium (MEM+GlutaMAX, Invitrogen) supplemented with 1× PenStrep, 25 mM HEPES, pH 7.4 and 0.07% BSA at 33° C. in 5% CO2. After 3 hours of attaching and starvation, cells were washed once with culture medium and then used for experiments. The preparation of testis explants was adapted from Powlin et al., 1998, Toxicol. Sci. 46:61-74. Explants were washed 3 times with PBS 1× and placed in serum free RPMI medium for 2 hours before being used for experiments.
(§4) After 1 hour, an aliquot of medium was collected for measurements of testosterone. Cells were then maintained for 3 additional hours and lysed in 1 ml TRIZOL® (Invitrogen) for RNA isolation.
(§5) RNA was purified from tissues, primary Leydig cells, or cultured cells using TRIZOL® (Invitrogen). RNA isolation, cDNA preparation, and qPCR analysis was carried out following standard protocols. qPCR analyses were performed using specific quantitative PCR primers from SABiosciences.

TM3 Leydig cells [5] = assay: ERK1/2 phosphorylation Western blot of Leydig cells; format: cell-based, mouse
Method: as §2

primary Leydig cells [6] = assay: Osteocalcin stimulation of primary Leydig cells, testosterone RIA; format: cell-based, mouse; details: increasing amounts of osteocalcin (0-100 ng/ml)
Method: as §3, §4, §1

Leydig cells = assay: CREB phosphorylation Western blot of Leydig cells; format: cell-based, mouse
Method: as §2

TM3 Leydig cells [7] = assay: qPCR of steroidogenic genes in TM3 Leydig cells treated with osteocalcin; format: cell-based, mouse; details: osteocalcin 0.3 to 300 ng/ml, 2 hours
Method: TM3 cells were treated with increasing amounts of osteocalcin and assayed for the expression of genes encoding enzymes of the steroidogenic cascade. […] Thus, whether looked at by in vivo or cell-based assays, osteocalcin promotes testosterone biosynthesis.
Gene expression analyses were performed using real time PCR. DNAse I-treated total RNA was converted to cDNA with the SuperScript III kit (Invitrogen). Real-time PCR were performed using the Taq SYBR Green Supermix with ROX (Biorad) on an MX3000 instrument (Stratagene); beta-actin amplification was used as an internal reference for each sample. All primers were from SuperArray.
as §5

WT mice [8] = assay: Circulating testosterone after osteocalcin injection in WT mice; format: in vivo, mouse; details: injection 3 ng/g of body weight, 1, 4 and 8 hours
Method: as §1

testis explants = assay: Osteocalcin stimulation of testis explants, testosterone RIA; format: cell-based, mouse; details: increasing amounts of osteocalcin (0-100 ng/ml)
Method: as §3, §4, §1

[9] = WT mice, 3 ng/g or 30 ng/g daily for 12 weeks, both doses

## N=C(N)NCCC[C@H](N)C(=O)O [arginine]
GPCR6A
  activation of GPCR6A: activate

## NCCCC[C@H](N)C(=O)O [lysine]
GPCR6A
  activation of GPCR6A: activate

## NCCC[C@H](N)C(=O)O [ornithine]
GPCR6A
  activation of GPCR6A: activate

## biotinylated osteocalcin: biotinylated osteocalcin used as a ligand in binding assays on mouse testes (YLGASVPSPDPLEPTREQCELNPACDELSDQYGLKTAYKRIYGITI; ends and bridges not checked; also: biotinylated, site not given here)
GPRC6a; GPRC6a-deficient testis sections
  binding to GPRC6a-deficient testes: no binding was detected
GPRC6a; WT mouse testis sections
  binding to Leydig cells: bound

## uncarboxylated osteocalcin: Recombinant osteocalcin bacterially produced as GST fusion, cleaved with thrombin; completely undercarboxylated at all three sites (YLGASVPSPDPLEPTREQCELNPACDELSDQYGLKTAYKRIYGITI)
WT mice [1]; WT mice injected daily, compared to vehicle-injected mice
  serum testosterone levels: increased
WT mice [1]; [9]
  sperm cell apoptosis: decreased
  sperm count: significantly increased
  testis weight: significantly increased
TM3 Leydig cells [2]; listed as Osteocalcin
  tyrosine phosphorylation: did not induce
TM3 Leydig cells [2]; listed as osteocalcin
  tyrosine phosphorylation: not in osteocalcin treated cells
Primary Leydig cells [3]
  intracellular calcium accumulation: did not induce
TM3 Leydig cells [4]; listed as Osteocalcin
  cAMP production: consistently induced
TM3 Leydig cells [4]; listed as osteocalcin
  cAMP production: increased
Leydig cell cultures
  expression of StAR, Cyp11a, Cyp17 and 3β-HSD: increased
TM3 Leydig cells [5]; listed as Osteocalcin
  ERK activation (ERK1/2 phosphorylation): did not induce
TM3 Leydig cells [5]; listed as osteocalcin
  ERK activation (ERK1/2 phosphorylation): absence of ERK1/2 phosphorylation
Primary Leydig cells [6]
  testosterone secretion: dose-dependent increase
Leydig cells
  CREB phosphorylation: favors
TM3 Leydig cells [7]
  expression of StAR, Cyp11a and Cyp17: specifically increased
WT mice [8]
  circulating levels of testosterone: increased
GPRC6a; excess (100 fold) of unlabeled competitor, WT testis sections
  competition of osteocalcin binding: competed away
Testis explants
  testosterone secretion: dose-dependent increase
